The test system of the assay is MCH receptors. The experiment in a line: MCH receptor activity class (method not given). The note with it: MCH receptor activity class 1-3 (percent of control at 10^-7 M or IC50).

SMILES strings stand for the structures.

As to `Cc1cc(Cl)cc(Cl)c1NC(=S)N[C@H]1CC[C@@H](Nc2cc(N(C)C)c3ccccc3n2)CC1` [compound 2301, N-(2,4-dichloro-6-methylphenyl)-N′-(cis-4-{[4-(dimethylamino)quinolin-2-yl]amino}cyclohexyl)thiourea], the class was 1 (Class 1: The value of percent of control at 10^−7 M was less than 40% or the value of IC50 was less than 50 nM.).

In the case of `CCOc1ccccc1NC(=S)N[C@H]1CC[C@@H](Nc2cc(N(C)C)c3ccccc3n2)CC1` [compound 2302], the class was 3 (Class 3 The value of percent of control at 10^−7 M was more than 60% or the value of IC50 was more than 200 nM.).

For the compound `Cc1cccc(C(C)C)c1NC(=S)N[C@H]1CC[C@@H](Nc2cc(N(C)C)c3ccccc3n2)CC1` [compound 2303], the class is on record as 3 (Class 3 The value of percent of control at 10^−7 M was more than 60% or the value of IC50 was more than 200 nM.).

For `CN(C)c1cc(N[C@H]2CC[C@@H](NC(=S)Nc3ccc4c(c3)OCCO4)CC2)nc2ccccc12` [compound 2304], the class was 3 (Class 3 The value of percent of control at 10^−7 M was more than 60% or the value of IC50 was more than 200 nM.).

Consider `CN(C)c1cc(N[C@H]2CC[C@@H](NC(=S)Nc3ccc4c(c3)OCO4)CC2)nc2ccccc12` [compound 2305], for which the class was 3 (Class 3 The value of percent of control at 10^−7 M was more than 60% or the value of IC50 was more than 200 nM.).

As for `Cc1c(Cl)cccc1NC(=S)N[C@H]1CC[C@@H](Nc2cc(N(C)C)c3ccccc3n2)CC1` [compound 2306], the class is 3 (Class 3 The value of percent of control at 10^−7 M was more than 60% or the value of IC50 was more than 200 nM.).

Take `CN(C)c1cc(N[C@H]2CC[C@@H](NC(=S)Nc3ccc(Br)cc3OC(F)(F)F)CC2)nc2ccccc12` [compound 2307]: the class was 3 (Class 3 The value of percent of control at 10^−7 M was more than 60% or the value of IC50 was more than 200 nM.).

Turning to `COc1cc(NC(=S)N[C@H]2CC[C@@H](Nc3cc(N(C)C)c4ccccc4n3)CC2)c(OC)cc1Cl` [compound 2308], the class is listed as 3 (Class 3 The value of percent of control at 10^−7 M was more than 60% or the value of IC50 was more than 200 nM.).

On to `Cc1onc(-c2ccccc2)c1NC(=S)N[C@H]1CC[C@@H](Nc2cc(N(C)C)c3ccccc3n2)CC1` [compound 2309], for which the class is recorded as 3 (Class 3 The value of percent of control at 10^−7 M was more than 60% or the value of IC50 was more than 200 nM.).

As for `COC(=O)c1scc(C)c1NC(=S)N[C@H]1CC[C@@H](Nc2cc(N(C)C)c3ccccc3n2)CC1` [compound 2311], the class is on record as 2 (Class 2: The value of percent of control at 10^−7 M was from 40% to 60% or the value of IC′50 was from 50 nM to 200 nM.).

In the case of `COC(=O)c1sccc1NC(=S)N[C@H]1CC[C@@H](Nc2cc(N(C)C)c3ccccc3n2)CC1` [compound 2312], the class is 3 (Class 3 The value of percent of control at 10^−7 M was more than 60% or the value of IC50 was more than 200 nM.).

On to `CCCCc1ccc(NC(=S)N[C@H]2CC[C@@H](Nc3cc(N(C)C)c4ccccc4n3)CC2)c(C)c1` [compound 2313], for which the class is 3 (Class 3 The value of percent of control at 10^−7 M was more than 60% or the value of IC50 was more than 200 nM.).

Regarding `COc1cc([N+](=O)[O-])ccc1NC(=S)N[C@H]1CC[C@@H](Nc2nccc(N(C)C)n2)CC1` [compound 2314], the class was 3 (Class 3 The value of percent of control at 10^−7 M was more than 60% or the value of IC50 was more than 200 nM.).

Consider `COc1ccc(C)cc1NC(=S)N[C@H]1CC[C@@H](Nc2nccc(N(C)C)n2)CC1` [compound 2315], for which the class was 3 (Class 3 The value of percent of control at 10^−7 M was more than 60% or the value of IC50 was more than 200 nM.).

As for `CN(C)c1ccnc(N[C@H]2CC[C@@H](NC(=S)Nc3ccc(Br)cc3Cl)CC2)n1` [compound 2316], the class is given as 3 (Class 3 The value of percent of control at 10^−7 M was more than 60% or the value of IC50 was more than 200 nM.).

Regarding `CN(C)c1ccnc(N[C@H]2CC[C@@H](NC(=S)Nc3ccc(I)cc3)CC2)n1` [compound 2317], the class is 3 (Class 3 The value of percent of control at 10^−7 M was more than 60% or the value of IC50 was more than 200 nM.).

Regarding `CN(C)c1ccnc(N[C@H]2CC[C@@H](NC(=S)Nc3c(Cl)cc(Cl)cc3Cl)CC2)n1` [compound 2319], the class is given as 3 (Class 3 The value of percent of control at 10^−7 M was more than 60% or the value of IC50 was more than 200 nM.).

On to `Cc1cc(C)c(NC(=S)N[C@H]2CC[C@@H](Nc3nccc(N(C)C)n3)CC2)c(C)c1` [compound 2320, N-(cis-4-{[4-(dimethylamino)pyrimidin-2-yl]amino}cyclohexyl)-N′-mesitylthiourea], for which the class is 1 (Class 1: The value of percent of control at 10^−7 M was less than 40% or the value of IC50 was less than 50 nM.).

As to `Cc1ccc(NC(=S)N[C@H]2CC[C@@H](Nc3nccc(N(C)C)n3)CC2)c(C)c1` [compound 2321], the class is recorded as 3 (Class 3 The value of percent of control at 10^−7 M was more than 60% or the value of IC50 was more than 200 nM.).

`CCc1cccc(CC)c1NC(=S)N[C@H]1CC[C@@H](Nc2nccc(N(C)C)n2)CC1` [compound 2322]: the class was 3 (Class 3 The value of percent of control at 10^−7 M was more than 60% or the value of IC50 was more than 200 nM.).

`Cc1ccc(NC(=S)N[C@H]2CC[C@@H](Nc3nccc(N(C)C)n3)CC2)c(Br)c1` [compound 2323]: the class is 3 (Class 3 The value of percent of control at 10^−7 M was more than 60% or the value of IC50 was more than 200 nM.).

`CN(C)c1ccnc(N[C@H]2CC[C@@H](NC(=S)NCc3ccccc3Cl)CC2)n1` [compound 2324]: the class is recorded as 3 (Class 3 The value of percent of control at 10^−7 M was more than 60% or the value of IC50 was more than 200 nM.).

With `CCc1cccc(C)c1NC(=S)N[C@H]1CC[C@@H](Nc2nccc(N(C)C)n2)CC1` [compound 2325], the class was 3 (Class 3 The value of percent of control at 10^−7 M was more than 60% or the value of IC50 was more than 200 nM.).

Turning to `CC(C)c1ccccc1NC(=S)N[C@H]1CC[C@@H](Nc2nccc(N(C)C)n2)CC1` [compound 2326], the class is listed as 3 (Class 3 The value of percent of control at 10^−7 M was more than 60% or the value of IC50 was more than 200 nM.).

Take `COC(=O)c1cccc(NC(=S)N[C@H]2CC[C@@H](Nc3nccc(N(C)C)n3)CC2)c1` [compound 2327]: the class is given as 3 (Class 3 The value of percent of control at 10^−7 M was more than 60% or the value of IC50 was more than 200 nM.).

On to `Cc1cc(Br)cc(C)c1NC(=S)N[C@H]1CC[C@@H](Nc2nccc(N(C)C)n2)CC1` [compound 2328, N-(4-bromo-2,6-dimethylphenyl)-N′-(cis-4-{[4-(dimethylamino)pyrimidin-2-yl]amino}cyclohexyl)thiourea], for which the class is given as 1 (Class 1: The value of percent of control at 10^−7 M was less than 40% or the value of IC50 was less than 50 nM.).

As to `Cc1cc(Br)ccc1NC(=S)N[C@H]1CC[C@@H](Nc2nccc(N(C)C)n2)CC1` [compound 2329], the class is 3 (Class 3 The value of percent of control at 10^−7 M was more than 60% or the value of IC50 was more than 200 nM.).

As to `CN(C)c1ccnc(N[C@H]2CC[C@@H](NC(=S)Nc3ccc(Br)cc3C(F)(F)F)CC2)n1` [compound 2330], the class is 3 (Class 3 The value of percent of control at 10^−7 M was more than 60% or the value of IC50 was more than 200 nM.).

For `Cc1cc(Cl)ccc1NC(=S)N[C@H]1CC[C@@H](Nc2nccc(N(C)C)n2)CC1` [compound 2331], the class was 3 (Class 3 The value of percent of control at 10^−7 M was more than 60% or the value of IC50 was more than 200 nM.).

With `CN(C)c1ccnc(N[C@H]2CC[C@@H](NC(=S)NCc3cccc4ccccc34)CC2)n1` [compound 2332], the class is listed as 3 (Class 3 The value of percent of control at 10^−7 M was more than 60% or the value of IC50 was more than 200 nM.).

With `COc1cccc(CNC(=S)N[C@H]2CC[C@@H](Nc3nccc(N(C)C)n3)CC2)c1OC` [compound 2333], the class is 3 (Class 3 The value of percent of control at 10^−7 M was more than 60% or the value of IC50 was more than 200 nM.).

`Cc1cc(C)c(NC(=S)N[C@H]2CC[C@@H](Nc3nccc(N(C)C)n3)CC2)cc1C` [compound 2334]: the class is listed as 3 (Class 3 The value of percent of control at 10^−7 M was more than 60% or the value of IC50 was more than 200 nM.).

Regarding `CN(C)c1ccnc(N[C@H]2CC[C@@H](NC(=S)Nc3ccccc3-c3ccccc3)CC2)n1` [compound 2335], the class is reported as 3 (Class 3 The value of percent of control at 10^−7 M was more than 60% or the value of IC50 was more than 200 nM.).

For the compound `Cc1cc([N+](=O)[O-])ccc1NC(=S)N[C@H]1CC[C@@H](Nc2nccc(N(C)C)n2)CC1` [compound 2336], the class is given as 3 (Class 3 The value of percent of control at 10^−7 M was more than 60% or the value of IC50 was more than 200 nM.).

For the compound `CN(C)c1ccnc(N[C@H]2CC[C@@H](NC(=S)NCc3cccc(Cl)c3)CC2)n1` [compound 2337], the class is recorded as 3 (Class 3 The value of percent of control at 10^−7 M was more than 60% or the value of IC50 was more than 200 nM.).

As for `CCOC(=O)c1cccc(NC(=S)N[C@H]2CC[C@@H](Nc3nccc(N(C)C)n3)CC2)c1` [compound 2338], the class is reported as 3 (Class 3 The value of percent of control at 10^−7 M was more than 60% or the value of IC50 was more than 200 nM.).

For the compound `CN(C)c1ccnc(N[C@H]2CC[C@@H](NC(=S)Nc3ccc(Cl)cc3C(F)(F)F)CC2)n1` [compound 2339], the class is reported as 3 (Class 3 The value of percent of control at 10^−7 M was more than 60% or the value of IC50 was more than 200 nM.).

With `Cc1cc(F)ccc1NC(=S)N[C@H]1CC[C@@H](Nc2nccc(N(C)C)n2)CC1` [compound 2340], the class is 3 (Class 3 The value of percent of control at 10^−7 M was more than 60% or the value of IC50 was more than 200 nM.).

`COc1ccc(NC(=S)N[C@H]2CC[C@@H](Nc3nccc(N(C)C)n3)CC2)c(C)c1` [compound 2341]: the class is recorded as 3 (Class 3 The value of percent of control at 10^−7 M was more than 60% or the value of IC50 was more than 200 nM.).
